{"source": "patent US20100197584A1", "about": "“USE OF CURCUMIN TO BLOCK BRAIN TUMOR FORMATION IN MICE” (Research Foundations of the City University of- New York, priority 2007, published 2010)", "test_system": "normal (non-tumor) brain cells", "assay": "Normal brain cell viability (MTT on brain sections)", "assay_type": "in vivo", "details": "brain sections of untreated mice treated with 1 mM in PBS for one hour; positive control for cell death (FIG. 10)", "protocol": "In each experiment, three mice were injected with 200 μl of PBS containing 3% DMSO, and three mice were injected with 200 μl of 667 μM curcumin (as described earlier) through the tail vein on three consecutive days by the method described above. On the fourth day, the mice were perfused with PBS through the heart, and the brains sectioned into 400-μm sections. Similar brain sections were also made from untreated mice which were then treated with 1 mM H2O2 in PBS for one hour, followed by incubation in H2O2-free DTM for three hours. These samples were used as a positive control for cell death.\nThe sections from each mouse were placed in 400 μl PBS in one well of a 48-well plate (i.e. three wells for three mice) and then treated with 200 μl of MTT (5 mg/ml) per well with gentle mixing at 37° C. for about 2 hours. Subsequently, 800 μl of the lysis buffer was added to each well, and the plate was sealed and incubated overnight at 37° C. with gentle mixing. Three 100-μl portions of the tissue solution obtained were next transferred to three respective wells of a 96-well plate (i.e. three wells per mouse and nine wells for three mice in one group) and absorbance at 570 nm was measured using a 96-well multi scanner auto-reader. Results obtained were normalized to protein levels and then expressed as percent of carrier-treated samples.", "data": [{"molecule": "OO", "note": "[H2O2, reference compound]", "values": [{"measurement": "cell viability in brain slices (MTT activity)", "result": "dramatic decrease"}]}]}
